#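 Interpolation was linear, between the two tested concentrations surrounding the appropriate level; five concentrations were tested over 48 hours in 96-well plates. TGI marks complete inhibition of growth.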
# Assays:
# Test in all cases: NCI anticancer screen, dose series, 48 h
# [1] = test system: HOP-62 NSCLC
# [2] = test system: HOP-92 NSCLC
# [3] = test system: COLO 205 colon
# [4] = test system: NCI-H226 lung
# [5] = test system: HCC-2998 colon
# [6] = test system: CCRF-CEM leukemia
# [7] = test system: UACC-62 melanoma
# [8] = test system: 786-0 renal
# [9] = test system: OVCAR-5 ovarian
# [10] = test system: T-47D breast
# [11] = test system: HS 578T breast
# [12] = test system: SNB-19 CNS
# [13] = test system: MDA-MB-231 breast
# [14] = test system: OVCAR-3 ovarian
# [15] = test system: DU-145 prostate
# [16] = test system: CAKI-1 renal
# [17] = test system: ACHN renal
# [18] = test system: NCI-H460 lung
# [19] = test system: HCT-15 colon
# [20] = test system: EKVX NSCLC
# [21] = test system: UACC-257 melanoma
# [22] = test system: SF-268 CNS
# [23] = test system: A498 renal
# [24] = test system: U251 CNS
# [25] = test system: SF-539 CNS
# [26] = test system: MALME-3M melanoma
# [27] = test system: SF-295 CNS
# [28] = test system: UO-31 renal
# [29] = test system: NCI-H23 lung
# [30] = test system: M14 melanoma
# [31] = test system: TK-10 renal
# [32] = test system: MCF7 breast
# [33] = test system: HT29 colon
# [34] = test system: RXF 393 renal
# [35] = test system: SK-MEL-28 melanoma
# [36] = test system: SK-MEL-5 melanoma
# [37] = test system: LOX IMVI melanoma
# [38] = test system: SW-620 colon
# [39] = test system: SNB-75 CNS
# [40] = test system: OVCAR-8 ovarian
# [41] = test system: MDA-MB-435
# [42] = test system: KM12 colon
# [43] = test system: HL-60(TB) leukemia
# [44] = test system: IGROV1 ovarian
# [45] = test system: SK-OV-3 ovarian
# [46] = test system: HCT-116 colon
# [47] = test system: OVCAR-4 ovarian
# [48] = test system: PC-3 prostate
# [49] = test system: MDA-N
# [50] = test system: SR leukemia
# [51] = test system: K-562 leukemia
# [52] = test system: RPMI-8226 leukemia
# [53] = test system: SN12C renal
# [54] = test system: MOLT-4 leukemia
# [55] = test system: NCI/ADR-RES ovarian
# [56] = test system: A549 NSCLC
# [57] = test system: NCI-H522 lung
# [58] = test system: SK-MEL-2 melanoma
compound,measurement,setting,value
CCOC(=O)NC(Nc1ncn(C(NC(=O)OCC)(C(F)(F)F)C(F)(F)F)n1)(C(F)(F)F)C(F)(F)F,TGI,[1],> 100 µM
same,TGI,[2],> 100 µM
same,TGI,[3],> 100 µM
same,TGI,[4],> 100 µM
same,TGI,[5],> 100 µM
same,TGI,[6],> 100 µM
same,TGI,[7],> 100 µM
same,TGI,[8],> 100 µM
same,TGI,[9],> 100 µM
same,TGI,[10],> 100 µM
same,TGI,[11],> 100 µM
same,TGI,[12],> 100 µM
same,TGI,[13],> 100 µM
same,TGI,[14],> 100 µM
same,TGI,[15],> 100 µM
same,TGI,[16],> 100 µM
same,TGI,[17],> 100 µM
same,TGI,[18],> 100 µM
same,TGI,[19],> 100 µM
same,TGI,[20],> 100 µM
same,TGI,[21],> 100 µM
same,TGI,[22],> 100 µM
same,TGI,[23],> 100 µM
same,TGI,[24],> 100 µM
same,TGI,[25],> 100 µM
same,TGI,[26],> 100 µM
same,TGI,[27],> 100 µM
same,TGI,[28],30.3 µM
same,TGI,[29],> 100 µM
same,TGI,[30],> 100 µM
same,TGI,[31],> 100 µM
same,TGI,[32],> 100 µM
same,TGI,[33],> 100 µM
same,TGI,[34],> 100 µM
same,TGI,[35],> 100 µM
same,TGI,[36],> 100 µM
same,TGI,[37],> 100 µM
same,TGI,[38],> 100 µM
same,TGI,[39],> 100 µM
same,TGI,[40],> 100 µM
same,TGI,[41],> 100 µM
same,TGI,[42],> 100 µM
same,TGI,[43],> 100 µM
same,TGI,[44],> 100 µM
same,TGI,[45],> 100 µM
same,TGI,[46],> 100 µM
same,TGI,[47],> 100 µM
same,TGI,[48],> 100 µM
same,TGI,[49],> 100 µM
same,TGI,[50],> 100 µM
same,TGI,[51],> 100 µM
same,TGI,[52],> 100 µM
same,TGI,[53],> 100 µM
same,TGI,[54],> 100 µM
same,TGI,[55],> 100 µM
same,TGI,[56],> 100 µM
CC(=O)c1sc2c(c1OC(=O)c1ccc(Cl)cc1Cl)c(=O)n(-c1ccccc1)c(=S)n2-c1ccccc1,TGI,[1],16.7 µM
same,TGI,[2],16.5 µM
same,TGI,[3],15 µM
same,TGI,[4],2.53 µM
same,TGI,[5],22.2 µM
same,TGI,[6],4.99 µM
same,TGI,[7],29.2 µM
same,TGI,[8],29.6 µM
same,TGI,[9],8.96 µM
same,TGI,[10],82.3 µM
same,TGI,[11],1.4 µM
same,TGI,[12],14.2 µM
same,TGI,[13],11.7 µM
same,TGI,[14],39 µM
same,TGI,[15],> 100 µM
same,TGI,[16],25.7 µM
same,TGI,[17],5.21 µM
same,TGI,[18],14.3 µM
same,TGI,[19],11.2 µM
same,TGI,[20],49.7 µM
same,TGI,[21],30 µM
same,TGI,[22],13.7 µM
same,TGI,[23],1.4 µM
same,TGI,[24],25.6 µM
same,TGI,[25],0.908 µM
same,TGI,[57],15.1 µM
same,TGI,[26],0.841 µM
same,TGI,[27],6.51 µM
same,TGI,[28],4.48 µM
same,TGI,[29],35.3 µM
same,TGI,[30],2.35 µM
same,TGI,[31],58.2 µM
same,TGI,[32],47.1 µM
same,TGI,[33],3.01 µM
same,TGI,[35],> 48.1 µM
same,TGI,[36],7.17 µM
same,TGI,[37],1.19 µM
same,TGI,[38],48.2 µM
same,TGI,[39],4.19 µM
same,TGI,[40],5.73 µM
same,TGI,[58],1.41 µM
same,TGI,[41],31.9 µM
same,TGI,[42],27 µM
same,TGI,[43],18.9 µM
same,TGI,[44],36.1 µM
same,TGI,[45],7.77 µM
same,TGI,[46],37.5 µM
same,TGI,[47],54 µM
same,TGI,[48],13.7 µM
same,TGI,[49],20 µM
same,TGI,[50],> 100 µM
same,TGI,[51],46.1 µM
same,TGI,[52],0.64 µM
same,TGI,[53],4.35 µM
same,TGI,[54],2.35 µM
same,TGI,[55],20.2 µM
same,TGI,[56],> 90 µM
CCCCc1ccc(-n2c(C)c(COC(=O)NC)c(COC(=O)NC)c2C)cc1,TGI,[1],21.6 µM
same,TGI,[2],11.5 µM
same,TGI,[3],19.6 µM
same,TGI,[4],2.85 µM
same,TGI,[5],30.7 µM
same,TGI,[6],18.4 µM
same,TGI,[7],10.5 µM
same,TGI,[8],16 µM
same,TGI,[9],17.1 µM
same,TGI,[10],27 µM
same,TGI,[11],45.9 µM
same,TGI,[12],30.4 µM
same,TGI,[13],17.8 µM
same,TGI,[14],24.5 µM
same,TGI,[15],26.3 µM
same,TGI,[16],15.9 µM
same,TGI,[17],7.22 µM
same,TGI,[18],18 µM
same,TGI,[19],20.9 µM
same,TGI,[20],27.8 µM
same,TGI,[21],24 µM
same,TGI,[22],20.3 µM
same,TGI,[23],2.6 µM
same,TGI,[24],17.4 µM
same,TGI,[25],15.9 µM
same,TGI,[57],9.3 µM
same,TGI,[26],22 µM
same,TGI,[27],24.4 µM
same,TGI,[28],10.6 µM
same,TGI,[29],26.4 µM
same,TGI,[30],24.5 µM
same,TGI,[31],12.4 µM
same,TGI,[32],19.3 µM
same,TGI,[33],24.9 µM
same,TGI,[34],9.8 µM
same,TGI,[35],33.8 µM
same,TGI,[36],23.5 µM
same,TGI,[37],18.4 µM
same,TGI,[38],21.4 µM
same,TGI,[39],19.4 µM
same,TGI,[40],16.5 µM
same,TGI,[41],28.1 µM
same,TGI,[42],29.3 µM
same,TGI,[43],24.4 µM
same,TGI,[45],14.1 µM
same,TGI,[46],17.8 µM
same,TGI,[48],32 µM
same,TGI,[49],31.3 µM
same,TGI,[50],17.2 µM
same,TGI,[51],> 100 µM
same,TGI,[52],19.8 µM
same,TGI,[53],14.5 µM
same,TGI,[55],27.4 µM
same,TGI,[56],19.6 µM

# Source: PubChem BioAssay (NCI)
